The values that follow come from US20240210412A1, “SULFONYL-TRIAZOLE COMPOUNDS USEFUL AS LIGANDS AND INHIBITORS OF PROSTAGLANDIN REDUCTASE 2” (University of Virginia Patent Foundation, priority 2021, published 2024).

Holding throughout (assay): SILAC LC-MS ABPP
Common to all, as to format: cell-based
Conditions in all cases: 25 μM 2 h, live DM93 cells

In one experiment the target is T1, P40939 (Homo sapiens, UniProt P40939).
T1 construct: endogenous in cells; host or cells: DM93 cells (SILAC)
The gist of the method:
(§1)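 First, heavy-labelled DM93 cells were exposed to SuTEx ligand (25 μM) and light cells to DMSO, 2 h at 37 °C. Second, HHS-475 (100 μM) was added for 2 h. Third, soluble lysates were clicked to desthiobiotin-azide, pooled 1:1, trypsin-digested, avidin-enriched and analysed by LC-MS/MS.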

A further experiment deals with T2, P55795 (Homo sapiens, UniProt P55795).
T2 construct: Probe-modified proteins from the soluble fraction were conjugated to a desthiobiotin-azide tag; endogenous in cells; host or cells: DM93 cells (SILAC)
The gist of the method:
as §1

For a further experiment, the target named is T3, Q12931 (Homo sapiens, UniProt Q12931).
T3 construct: performing SuTEx compound screening directly in cells; endogenous in cells; host or cells: DM93 cells (SILAC)
In outline: as §1

The next experiment deals with T4, Q9P2B4 (Homo sapiens, UniProt Q9P2B4).
T4 construct: endogenous in cells; host or cells: DM93 cells (SILAC)
In outline: as §1

In the next experiment the target is T5, P78527 (Homo sapiens, UniProt P78527).
T5 construct: performing SuTEx compound screening directly in cells; endogenous in cells; host or cells: DM93 cells (SILAC)
The gist of the method: as §1

The next experiment has as its target T6, Q13057 (Homo sapiens, UniProt Q13057).
T6 construct: performing SuTEx compound screening directly in cells; endogenous in cells; host or cells: DM93 cells (SILAC), soluble fraction
In outline:
as §1

The next experiment deals with T7, O60763 (Homo sapiens, UniProt O60763).
T7 construct: endogenous in cells; host or cells: DM93
The gist of the method:
as §1

A further experiment deals with T8, Q8IWS0 (Homo sapiens, UniProt Q8IWS0).
T8 construct: endogenous in cells; host or cells: DM93 cells (SILAC), live-cell treatment
The gist of the method:
as §1

The next experiment has as its target T9, Q9BWT3 (Homo sapiens, UniProt Q9BWT3).
T9 construct: endogenous in cells; host or cells: DM93 cells (SILAC), treated live; soluble proteome analysed
The gist of the method: as §1

For a further experiment, the target named is T10, O43823 (Homo sapiens, UniProt O43823).
T10 construct: endogenous in cells; host or cells: DM93
The gist of the method: as §1

The next experiment concerns the target T11, P05455 (Homo sapiens, UniProt P05455).
T11 construct: endogenous in cells; host or cells: DM93 cells (SILAC)
In outline:
as §1

The next experiment deals with T12, P26358 (Homo sapiens, UniProt P26358).
T12 construct: endogenous in cells; host or cells: DM93 (SILAC)
In outline:
as §1

The target in a further experiment is T13, P50851 (Homo sapiens, UniProt P50851).
T13 construct: Probe-modified proteins from the soluble fraction were conjugated to a desthiobiotin-azide tag; endogenous in cells; host or cells: DM93 cells (SILAC)
In outline:
as §1

A further experiment has as its target T14, P51003 (Homo sapiens, UniProt P51003).
T14 construct: Probe-modified proteins from the soluble fraction were conjugated to a desthiobiotin-azide tag; endogenous in cells; host or cells: DM93 cells (SILAC)
The gist of the method:
as §1

The next experiment deals with T15, Q13428 (Homo sapiens, UniProt Q13428).
T15 construct: performing SuTEx compound screening directly in cells; endogenous in cells; host or cells: DM93 cells (SILAC), soluble fraction
In outline:
as §1

A further experiment addresses T16, Q96BR5 (Homo sapiens, UniProt Q96BR5).
T16 construct: endogenous in cells; host or cells: DM93 cells (SILAC), treated live; soluble proteome analysed
In outline:
as §1

The target of another experiment is T17, Q9HCH5 (Homo sapiens, UniProt Q9HCH5).
T17 construct: endogenous in cells; host or cells: DM93 cells (SILAC), treated live; soluble proteome analysed
In outline:
as §1

T2 sequence (P55795 whole entry): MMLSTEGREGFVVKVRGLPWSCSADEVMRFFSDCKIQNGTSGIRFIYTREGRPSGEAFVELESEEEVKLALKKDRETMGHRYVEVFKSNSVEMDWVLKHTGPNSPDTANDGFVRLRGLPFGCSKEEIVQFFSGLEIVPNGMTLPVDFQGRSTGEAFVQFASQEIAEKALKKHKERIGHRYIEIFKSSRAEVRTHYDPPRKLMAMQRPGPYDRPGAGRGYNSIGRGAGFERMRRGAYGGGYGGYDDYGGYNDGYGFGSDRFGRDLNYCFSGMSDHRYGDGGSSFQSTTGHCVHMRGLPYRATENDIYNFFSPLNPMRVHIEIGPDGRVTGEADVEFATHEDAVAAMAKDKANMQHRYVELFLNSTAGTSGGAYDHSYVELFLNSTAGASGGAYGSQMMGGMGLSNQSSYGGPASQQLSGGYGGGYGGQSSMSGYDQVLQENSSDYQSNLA
T9 sequence (Q9BWT3 whole entry): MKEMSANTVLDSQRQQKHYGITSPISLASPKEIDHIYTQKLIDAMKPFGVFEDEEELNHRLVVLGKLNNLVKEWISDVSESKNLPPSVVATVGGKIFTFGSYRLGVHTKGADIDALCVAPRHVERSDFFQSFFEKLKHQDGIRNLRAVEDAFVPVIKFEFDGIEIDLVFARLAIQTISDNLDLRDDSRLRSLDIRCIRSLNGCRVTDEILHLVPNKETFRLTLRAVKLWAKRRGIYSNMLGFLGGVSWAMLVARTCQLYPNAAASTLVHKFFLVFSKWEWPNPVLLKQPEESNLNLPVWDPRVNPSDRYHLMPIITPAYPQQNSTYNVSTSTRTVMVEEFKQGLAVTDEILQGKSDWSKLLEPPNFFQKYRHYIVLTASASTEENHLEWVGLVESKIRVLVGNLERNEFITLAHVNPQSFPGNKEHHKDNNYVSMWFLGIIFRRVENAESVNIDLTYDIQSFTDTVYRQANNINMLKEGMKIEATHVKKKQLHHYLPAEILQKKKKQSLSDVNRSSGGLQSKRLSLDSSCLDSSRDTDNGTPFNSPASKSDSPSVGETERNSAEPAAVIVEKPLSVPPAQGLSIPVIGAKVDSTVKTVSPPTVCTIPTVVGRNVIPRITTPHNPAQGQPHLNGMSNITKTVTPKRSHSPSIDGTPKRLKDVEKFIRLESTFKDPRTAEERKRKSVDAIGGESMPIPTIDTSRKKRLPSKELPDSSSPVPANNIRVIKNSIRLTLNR
T3 sequence (Q12931 60-704): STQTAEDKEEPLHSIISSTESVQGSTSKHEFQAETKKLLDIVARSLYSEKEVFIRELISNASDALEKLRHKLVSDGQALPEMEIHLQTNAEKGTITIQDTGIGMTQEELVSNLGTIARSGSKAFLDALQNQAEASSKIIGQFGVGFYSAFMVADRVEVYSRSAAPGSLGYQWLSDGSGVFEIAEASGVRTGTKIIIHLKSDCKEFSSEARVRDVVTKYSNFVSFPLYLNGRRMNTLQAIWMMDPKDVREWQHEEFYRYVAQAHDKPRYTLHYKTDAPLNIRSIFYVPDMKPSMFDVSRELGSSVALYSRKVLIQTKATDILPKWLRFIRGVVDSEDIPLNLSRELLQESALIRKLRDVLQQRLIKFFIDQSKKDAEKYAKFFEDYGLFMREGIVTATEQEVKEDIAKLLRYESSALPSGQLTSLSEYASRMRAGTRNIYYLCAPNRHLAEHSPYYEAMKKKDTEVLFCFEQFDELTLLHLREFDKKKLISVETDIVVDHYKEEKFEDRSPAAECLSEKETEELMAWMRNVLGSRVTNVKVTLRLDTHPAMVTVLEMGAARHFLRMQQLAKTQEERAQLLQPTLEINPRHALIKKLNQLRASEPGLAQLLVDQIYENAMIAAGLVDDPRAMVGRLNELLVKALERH
T12 sequence (P26358 whole entry): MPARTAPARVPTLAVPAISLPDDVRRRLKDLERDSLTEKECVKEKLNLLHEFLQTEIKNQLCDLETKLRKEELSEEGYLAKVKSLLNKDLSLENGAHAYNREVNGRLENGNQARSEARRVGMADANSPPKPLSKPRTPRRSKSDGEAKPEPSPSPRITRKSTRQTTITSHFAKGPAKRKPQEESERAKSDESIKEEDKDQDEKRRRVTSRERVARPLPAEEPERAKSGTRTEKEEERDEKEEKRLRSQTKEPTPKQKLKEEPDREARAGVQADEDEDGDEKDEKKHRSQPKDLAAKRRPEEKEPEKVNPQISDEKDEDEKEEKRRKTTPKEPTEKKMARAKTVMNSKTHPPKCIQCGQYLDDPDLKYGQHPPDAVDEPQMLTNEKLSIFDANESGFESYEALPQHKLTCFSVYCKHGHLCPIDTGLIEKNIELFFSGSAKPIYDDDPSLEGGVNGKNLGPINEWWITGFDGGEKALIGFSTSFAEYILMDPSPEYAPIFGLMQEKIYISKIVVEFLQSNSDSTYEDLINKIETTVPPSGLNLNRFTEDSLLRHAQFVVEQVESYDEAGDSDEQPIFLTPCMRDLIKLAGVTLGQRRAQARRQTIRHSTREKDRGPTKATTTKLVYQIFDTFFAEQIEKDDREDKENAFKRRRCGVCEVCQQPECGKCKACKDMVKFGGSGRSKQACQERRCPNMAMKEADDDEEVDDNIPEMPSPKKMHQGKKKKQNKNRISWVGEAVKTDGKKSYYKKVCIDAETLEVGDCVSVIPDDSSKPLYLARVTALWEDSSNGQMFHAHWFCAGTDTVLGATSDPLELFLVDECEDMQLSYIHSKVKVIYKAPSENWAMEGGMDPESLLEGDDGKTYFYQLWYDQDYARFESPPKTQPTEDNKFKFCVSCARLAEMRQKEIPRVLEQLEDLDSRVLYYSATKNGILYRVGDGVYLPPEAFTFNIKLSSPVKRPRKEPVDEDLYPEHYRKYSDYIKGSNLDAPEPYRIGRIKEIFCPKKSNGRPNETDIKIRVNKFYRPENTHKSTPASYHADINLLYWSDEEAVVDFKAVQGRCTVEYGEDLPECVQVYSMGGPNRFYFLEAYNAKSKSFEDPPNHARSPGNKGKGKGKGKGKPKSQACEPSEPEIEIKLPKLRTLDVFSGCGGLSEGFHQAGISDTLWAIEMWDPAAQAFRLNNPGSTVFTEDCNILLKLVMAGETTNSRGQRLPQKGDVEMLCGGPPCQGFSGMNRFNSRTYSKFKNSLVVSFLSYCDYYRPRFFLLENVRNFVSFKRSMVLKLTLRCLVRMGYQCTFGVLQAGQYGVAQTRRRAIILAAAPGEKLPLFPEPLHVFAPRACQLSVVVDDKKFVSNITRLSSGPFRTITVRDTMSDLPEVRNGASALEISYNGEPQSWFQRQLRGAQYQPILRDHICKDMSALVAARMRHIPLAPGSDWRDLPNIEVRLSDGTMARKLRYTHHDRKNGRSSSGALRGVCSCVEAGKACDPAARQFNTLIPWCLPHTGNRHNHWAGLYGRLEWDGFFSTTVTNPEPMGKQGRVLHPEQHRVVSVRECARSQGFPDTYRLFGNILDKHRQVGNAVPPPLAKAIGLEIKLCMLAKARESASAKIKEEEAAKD
T16 sequence (Q96BR5 whole entry): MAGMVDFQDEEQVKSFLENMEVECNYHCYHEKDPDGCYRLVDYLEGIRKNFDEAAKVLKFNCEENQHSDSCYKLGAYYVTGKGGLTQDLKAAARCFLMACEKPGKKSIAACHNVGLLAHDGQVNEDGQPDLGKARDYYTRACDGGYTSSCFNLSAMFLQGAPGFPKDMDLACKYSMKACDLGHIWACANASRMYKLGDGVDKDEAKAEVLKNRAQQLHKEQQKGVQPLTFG
T11 sequence (P05455 whole entry): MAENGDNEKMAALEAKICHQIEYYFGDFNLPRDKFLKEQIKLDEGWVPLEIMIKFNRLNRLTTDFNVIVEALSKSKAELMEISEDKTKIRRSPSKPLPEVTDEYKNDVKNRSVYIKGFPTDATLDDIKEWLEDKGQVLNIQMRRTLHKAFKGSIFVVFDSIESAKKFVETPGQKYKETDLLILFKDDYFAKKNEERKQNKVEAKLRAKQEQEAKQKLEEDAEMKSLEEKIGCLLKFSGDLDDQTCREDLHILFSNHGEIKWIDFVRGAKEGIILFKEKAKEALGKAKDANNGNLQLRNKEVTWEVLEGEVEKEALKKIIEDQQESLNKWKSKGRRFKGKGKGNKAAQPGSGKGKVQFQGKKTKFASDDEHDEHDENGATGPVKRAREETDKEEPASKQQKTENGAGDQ
T17 sequence (Q9HCH5 whole entry): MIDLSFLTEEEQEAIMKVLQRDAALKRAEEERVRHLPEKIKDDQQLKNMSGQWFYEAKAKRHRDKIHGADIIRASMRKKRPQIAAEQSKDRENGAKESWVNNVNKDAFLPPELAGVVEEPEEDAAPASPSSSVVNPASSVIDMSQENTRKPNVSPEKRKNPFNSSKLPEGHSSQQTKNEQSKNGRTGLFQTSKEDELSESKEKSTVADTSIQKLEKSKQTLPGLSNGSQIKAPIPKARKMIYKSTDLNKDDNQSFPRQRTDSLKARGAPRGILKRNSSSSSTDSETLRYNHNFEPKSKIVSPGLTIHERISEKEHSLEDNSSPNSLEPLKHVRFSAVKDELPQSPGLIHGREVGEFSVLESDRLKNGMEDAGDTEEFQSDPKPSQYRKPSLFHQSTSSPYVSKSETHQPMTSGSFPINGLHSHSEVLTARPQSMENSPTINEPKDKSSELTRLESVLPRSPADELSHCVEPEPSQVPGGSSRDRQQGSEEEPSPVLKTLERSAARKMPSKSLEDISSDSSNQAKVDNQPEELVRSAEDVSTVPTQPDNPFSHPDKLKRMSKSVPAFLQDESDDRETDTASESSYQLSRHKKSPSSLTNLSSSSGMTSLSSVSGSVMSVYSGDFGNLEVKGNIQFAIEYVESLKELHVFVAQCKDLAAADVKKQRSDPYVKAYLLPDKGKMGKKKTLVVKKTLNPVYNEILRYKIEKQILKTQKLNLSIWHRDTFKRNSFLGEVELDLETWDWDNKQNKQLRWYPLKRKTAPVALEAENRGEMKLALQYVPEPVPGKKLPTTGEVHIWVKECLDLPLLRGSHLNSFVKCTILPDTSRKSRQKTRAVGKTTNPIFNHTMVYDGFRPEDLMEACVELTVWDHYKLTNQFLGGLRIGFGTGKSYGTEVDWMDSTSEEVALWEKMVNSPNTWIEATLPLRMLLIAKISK

As for `O=C(c1ccc(S(=O)(=O)n2cncn2)cc1)N1CCC(c2ccccc2)CC1` [HHS-0701, (4-((1H-1,2,4-triazol-1-yl)sulfonyl)phenyl)(4-phenylpiperidin-1-yl)methanone], the “liganded tyrosine site 343” value at P40939 is recorded as “HHS0701.Y (tyrosine sites that showed >80% reductions (SR >5) in probe labeling in cells treated with compounds (liganded sites))”. Moreover, at P55795, the “liganded tyrosine site 240” value was “HHS0701.Y (tyrosine sites that showed >80% reductions (SR >5) in probe labeling in cells treated with compounds (liganded sites))” and the “liganded tyrosine site 243” value is reported as “HHS0701.Y (tyrosine sites that showed >80% reductions (SR >5) in probe labeling in cells treated with compounds (liganded sites))”. In addition, the “liganded tyrosine site 559” value on Q12931 is on record as “HHS0701.Y (tyrosine sites that showed >80% reductions (SR >5) in probe labeling in cells treated with compounds (liganded sites))”. Also, on Q9P2B4, the “liganded tyrosine site 343” value is “HHS0701.Y (tyrosine sites that showed >80% reductions (SR >5) in probe labeling in cells treated with compounds (liganded sites))”.
`O=C(NC1CCCCC1)c1ccc(S(=O)(=O)n2cncn2)cc1` [HHS-0301, 4-((1H-1,2,4-triazol-1-yl)sulfonyl)-N-cyclohexylbenzamide]: the “liganded tyrosine site 701” value at P78527 is “HHS0301.Y (tyrosine sites that showed >80% reductions (SR >5) in probe labeling in cells treated with compounds (liganded sites))”. Moreover, the “liganded tyrosine site 126” value at Q13057 is recorded as “HHS0301.Y (tyrosine sites that showed >80% reductions (SR >5) in probe labeling in cells treated with compounds (liganded sites))”.
With `O=C(NCC1CC1)c1ccc(S(=O)(=O)n2cncn2)cc1` [HHS-0201, 4-((1H-1,2,4-triazol-1-yl)sulfonyl)-N-(cyclopropylmethyl)benzamide], the “liganded tyrosine site 718” value at O60763 was “HHS0201.Y (tyrosine sites that showed >80% reductions (SR >5) in probe labeling in cells treated with compounds (liganded sites))”. Also, on Q8IWS0, the “liganded tyrosine site 303” value is recorded as “HHS0201.Y (tyrosine sites that showed >80% reductions (SR >5) in probe labeling in cells treated with compounds (liganded sites))”. In addition, the “liganded tyrosine site 326” value at Q9BWT3 is “HHS0201.Y|HHS0701.Y (tyrosine sites that showed >80% reductions (SR >5) in probe labeling in cells treated with compounds (liganded sites))”.
Regarding `O=C(NCc1ccccc1)c1ccc(S(=O)(=O)n2cncn2)cc1` [HHS-0401, 4-((1H-1,2,4-triazol-1-yl)sulfonyl)-N-benzylbenzamide], the “liganded tyrosine site 436” value at O43823 is recorded as “HHS0401.Y (tyrosine sites that showed >80% reductions (SR >5) in probe labeling in cells treated with compounds (liganded sites))”. Also, on P05455, the “liganded tyrosine site 188” value is listed as “HHS0401.Y (tyrosine sites that showed >80% reductions (SR >5) in probe labeling in cells treated with compounds (liganded sites))”. Besides, the “liganded tyrosine site 367” value on P26358 is on record as “HHS0401.Y (tyrosine sites that showed >80% reductions (SR >5) in probe labeling in cells treated with compounds (liganded sites))”. Moreover, on P50851, the “liganded tyrosine site 2656” value was “HHS0401.Y (tyrosine sites that showed >80% reductions (SR >5) in probe labeling in cells treated with compounds (liganded sites))”. The “liganded tyrosine site 327” value at P51003 is “HHS0401.Y|HHS0701.Y (tyrosine sites that showed >80% reductions (SR >5) in probe labeling in cells treated with compounds (liganded sites))”. Moreover, the “liganded tyrosine site 15” value on Q13428 was “HHS0401.Y (tyrosine sites that showed >80% reductions (SR >5) in probe labeling in cells treated with compounds (liganded sites))”. Moreover, the “liganded tyrosine site 72” value on Q96BR5 is “HHS0401.Y (tyrosine sites that showed >80% reductions (SR >5) in probe labeling in cells treated with compounds (liganded sites))”.
On to `O=C(NC1CC1)c1ccc(S(=O)(=O)n2cncn2)cc1` [HHS-0101, 4-((1H-1,2,4-triazol-1-yl)sulfonyl)-N-cyclopropylbenzamide], for which the “liganded tyrosine site 289” value at Q9HCH5 is “HHS0101.Y|HHS0201.Y|HHS0301.Y|HHS0401.Y|HHS0701.Y (tyrosine sites that showed >80% reductions (SR >5) in probe labeling in cells treated with compounds (liganded sites))”.
